One experiment is filed under the species Homo sapiens. Nature of the experiment: Selectivity ratio of pKi for human A3AR to pKi for human A1AR.
The target in experiment [1] is T1, Adenosine receptor A3 (Homo sapiens) (UniProt P0DMS8).
T1 sequence (whole entry): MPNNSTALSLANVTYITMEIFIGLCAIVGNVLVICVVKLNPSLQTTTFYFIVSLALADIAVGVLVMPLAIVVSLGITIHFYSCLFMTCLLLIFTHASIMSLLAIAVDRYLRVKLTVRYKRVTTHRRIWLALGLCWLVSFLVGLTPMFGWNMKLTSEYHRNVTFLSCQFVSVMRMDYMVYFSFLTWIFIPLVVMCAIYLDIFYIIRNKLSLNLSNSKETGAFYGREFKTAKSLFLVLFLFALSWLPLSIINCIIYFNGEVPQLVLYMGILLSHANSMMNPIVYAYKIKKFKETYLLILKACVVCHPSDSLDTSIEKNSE
Nature of the experiment: Binding affinity to human A3AR at 50 nM incubated for 1 hr by SDS-PAGE analysis.

The target of experiment [2] is T1, Adenosine receptor A3 (Homo sapiens). Nature of the experiment: Binding affinity to human A3AR expressed in CHO cells membrane at 50 nM incubated for 1 hr by SDS-PAGE analysis. It is filed as cell membranes.
Experiment [3] has the same target. Nature of the experiment: Binding affinity to human A3AR expressed in granulocytes incubated for 1 hr by flow cytometry analysis. It is filed as cell-based. (In flow cytometry, cells or beads pass a laser one at a time.)
Experiment [4] shares this target. Nature of the experiment: Binding affinity to human A3AR expressed in eosinophil incubated for 1 hr by flow cytometry analysis. It is filed as cell-based.

The source made the active and inactive calls. No cut-off for these calls is given here.

With `C#CCN(CCCn1c(=O)n(CCC)c(=O)c2c1nc1cc(OC)ccn12)C(=O)c1ccc(S(=O)(=O)F)cc1`, in the experiment listed under Homo sapiens, the Ratio pKi is greater than 100. For the same compound, the result in experiment [1] was Active.
Turning to `C#CCn1c(=O)c2c(nc3cc(OC)ccn32)n(CCCNC(=O)c2ccc(S(=O)(=O)F)cc2)c1=O`, in experiment [1], the result was Active.
In the case of `C#CCOc1ccn2c(c1)nc1c2c(=O)n(CCC)c(=O)n1CCCNC(=O)c1ccc(S(=O)(=O)F)cc1`, the Ratio pKi in the experiment listed under Homo sapiens was greater than 17. For the same compound, the result in experiment [1], in experiment [2] and in experiment [4] was Active. The result in experiment [3] was inactive.

Source of the values: ChEMBL document CHEMBL5360638, “Development of an Affinity-Based Probe to Profile Endogenous Human Adenosine A3 Receptor Expression” (J Med Chem, 2023).
